The text below walks through data of patent publication US10273240B2, “Cortistatin analogues, syntheses, and uses thereof” (President and Fellows of Harvard College, priority 2015, dated 2019).

One data set relates to RS4;11. The experiment in a line: Cell growth assay, RS4;11. It counts as cell-based. The following applies: Homo sapiens, RS4-11, 240 h; CA, after 10 days; read-out: Mean GI50 (nM), RS4;11. The procedure:
Cell Culture. All media was supplemented with 100 U/mL penicillin and 100 μg/mL streptomycin. Human cancer cell lines were grown in the following media: MV4; 11, RS4; 11, K562, HEL, MOLM-14, MEG-01 in RPMI-1640, 10% FBS; SET-2 in RPMI-1640, 20% FBS; UKE-1 in RPMI-1640, 10% FBS, 10% horse serum and 1 μM hydrocortisone; SKNO-1 and TF-1 in RPMI-1640, 10% FBS, and 10 or 2 ng/mL GM-CSF, respectively; HaCaT in DMEM, 10% FBS; and HCT116 in McCoy's 5 A, 10% FBS (proliferation assay) or DMEM, 10% FBS (gene expression study). HepG2, MV4;11, RS4;11, MEG-01, TF-1, HCT116 and K562 were from ATCC. SKNO-1 was from DSMZ. HEL, UKE-1, and SET-2 were provided by Ross L. Levine and HaCaT, MV4;11-mCLP, and MOLM-14 by Van Wilson, Andrew L. Kung, and Scott A. Armstrong, respectively. MOLM-14 cells were authenticated by STR profiling and flow cytometry and all cell lines were routinely tested and found to be negative for mycoplasma.

Data set [1] addresses T1, CDK12 in MOLM-14 cell lysate (Homo sapiens, UniProt Q9NYV4).
T1 construct: endogenous in cells; host or cells: MOLM-14 cell lysate
Briefly: Native kinase capture immunoblot, CDK12. It counts as binding. The procedure:
Native Kinase Capture Immunoblot and Native Kinome-Wide Profiling. […] Experiment was performed twice with one immunoblot shown.
On the technique in general: A western blot detects proteins with antibodies after separation by electrophoresis.

Data set [2] relates to myeloid, mixed-lineage, and megakaryoblastic leukemia cell lines. The experiment in a line: Cell growth assay, leukemia cell lines in general. The settings on record: Homo sapiens, 240 h; 10-day treatment. It counts as cell-based.
For a further data set, the target named is T2, CDK7 (TFIIH) (Homo sapiens, UniProt P50613).
T2 construct: TFIIH was captured from HeLa nuclear extract; endogenous in cells; host or cells: HeLa nuclear extract
The experiment in a line: In vitro kinase assay, CDK7 (TFIIH). It counts as biochemical. The procedure:
Kinase Assays. Data was quantified with ImageJ and plotted and fitted with GraphPad Prism 6.0. For STAT1 transactivation domain (TAD), 750 ng of GST-STAT1 TAD (residues 639-750) was incubated with ˜50 ng recombinant CDK8 module at 30° C. for 8 min in kinase buffer (25 mM Tris pH 8, 2 mM DTT, 100 μM cold ATP, 100 mM KCl, 10 mM MgCl2 and 2.5 μCi [γ-^32P] ATP (Perkin Elmer) per reaction). […] 12% SDS-PAGE gels were subsequently silver stained, exposed for 18 h on a Phosphor Screen and imaged (Typhoon 9400, GE Life Sciences). For pol II CTD, 400 ng of GST-CTD (murine sequence) was incubated with ˜40 ng recombinant CDK8 module, 25 ng TFIIH, or 40 ng P-TEFb at 30° C. for 60 min in kinase buffer. Kinase amounts were chosen to give similar total pol II CTD signal. 9% SDS-PAGE gels were silver stained and exposed as above. In vitro FLAG-CDK8 kinase assays used ˜40 ng kinase and 500 ng GST-CTD. For STAT1 or Smad2/3, cells were treated with compound for 1 h followed by IFN-γ or TGF-β1 for 1 h, then washed twice with cold PBS, and lysed (RIPA buffer with inhibitors R0278, P8340, P0044, P5762 Sigma-Aldrich). Standard immunoblotting was then performed with one immunoblot shown. All experiments were performed twice.
Protein Purification. Buffers for purification and elution of recombinant proteins included 0.25 mM PMSF, 1 mM DTT, 1 mM benzamidine, and 1 mM sodium metabisulfite. […]

Data set [3] has as its system subcutaneously implanted SET-2 cells. Briefly: SET-2 subcutaneous xenotransplant model. The format is in vivo. The settings on record: SCID beige mice, IP dosing daily.

The structures appear in SMILES notation.

By GI50 is commonly meant the concentration at which growth is held to half of that of the control.

T1 sequence (Q9NYV4 whole entry): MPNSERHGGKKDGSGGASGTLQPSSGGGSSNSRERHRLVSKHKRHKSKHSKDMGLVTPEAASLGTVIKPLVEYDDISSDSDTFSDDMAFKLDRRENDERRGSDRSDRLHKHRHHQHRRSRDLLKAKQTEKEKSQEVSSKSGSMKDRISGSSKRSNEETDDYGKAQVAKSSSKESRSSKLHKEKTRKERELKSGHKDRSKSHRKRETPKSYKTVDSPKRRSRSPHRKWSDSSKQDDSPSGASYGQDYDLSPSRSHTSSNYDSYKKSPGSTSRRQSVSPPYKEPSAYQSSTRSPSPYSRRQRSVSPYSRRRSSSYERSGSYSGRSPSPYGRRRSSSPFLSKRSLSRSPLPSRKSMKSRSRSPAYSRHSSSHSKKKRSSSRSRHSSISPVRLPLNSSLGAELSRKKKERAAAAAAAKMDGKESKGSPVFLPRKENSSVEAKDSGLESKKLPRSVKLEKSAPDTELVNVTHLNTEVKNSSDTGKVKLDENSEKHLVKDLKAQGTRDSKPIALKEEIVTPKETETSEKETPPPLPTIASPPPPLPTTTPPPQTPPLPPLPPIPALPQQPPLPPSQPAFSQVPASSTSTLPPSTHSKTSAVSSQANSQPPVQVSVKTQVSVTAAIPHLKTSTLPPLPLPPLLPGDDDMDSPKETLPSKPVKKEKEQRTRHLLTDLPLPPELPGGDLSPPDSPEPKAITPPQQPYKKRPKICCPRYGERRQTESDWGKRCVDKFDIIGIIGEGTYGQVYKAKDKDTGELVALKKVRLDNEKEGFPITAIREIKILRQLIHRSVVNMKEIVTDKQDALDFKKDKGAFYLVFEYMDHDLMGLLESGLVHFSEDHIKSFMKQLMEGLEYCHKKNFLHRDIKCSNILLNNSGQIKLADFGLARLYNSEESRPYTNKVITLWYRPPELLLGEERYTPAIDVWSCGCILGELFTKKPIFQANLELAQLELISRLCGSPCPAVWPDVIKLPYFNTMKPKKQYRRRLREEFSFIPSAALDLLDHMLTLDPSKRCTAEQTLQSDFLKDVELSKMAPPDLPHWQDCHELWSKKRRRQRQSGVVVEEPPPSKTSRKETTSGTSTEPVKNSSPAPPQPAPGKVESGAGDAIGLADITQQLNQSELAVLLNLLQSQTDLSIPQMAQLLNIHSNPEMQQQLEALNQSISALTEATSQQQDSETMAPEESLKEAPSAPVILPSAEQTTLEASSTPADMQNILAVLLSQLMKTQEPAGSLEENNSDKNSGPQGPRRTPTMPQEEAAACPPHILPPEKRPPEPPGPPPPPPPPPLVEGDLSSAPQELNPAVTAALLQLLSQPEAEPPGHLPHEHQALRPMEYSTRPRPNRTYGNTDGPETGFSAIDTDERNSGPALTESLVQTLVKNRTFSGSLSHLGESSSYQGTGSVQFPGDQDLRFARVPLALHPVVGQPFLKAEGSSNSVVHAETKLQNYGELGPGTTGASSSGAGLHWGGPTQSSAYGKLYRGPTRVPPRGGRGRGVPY
T1 sequence (O75909 whole entry partner): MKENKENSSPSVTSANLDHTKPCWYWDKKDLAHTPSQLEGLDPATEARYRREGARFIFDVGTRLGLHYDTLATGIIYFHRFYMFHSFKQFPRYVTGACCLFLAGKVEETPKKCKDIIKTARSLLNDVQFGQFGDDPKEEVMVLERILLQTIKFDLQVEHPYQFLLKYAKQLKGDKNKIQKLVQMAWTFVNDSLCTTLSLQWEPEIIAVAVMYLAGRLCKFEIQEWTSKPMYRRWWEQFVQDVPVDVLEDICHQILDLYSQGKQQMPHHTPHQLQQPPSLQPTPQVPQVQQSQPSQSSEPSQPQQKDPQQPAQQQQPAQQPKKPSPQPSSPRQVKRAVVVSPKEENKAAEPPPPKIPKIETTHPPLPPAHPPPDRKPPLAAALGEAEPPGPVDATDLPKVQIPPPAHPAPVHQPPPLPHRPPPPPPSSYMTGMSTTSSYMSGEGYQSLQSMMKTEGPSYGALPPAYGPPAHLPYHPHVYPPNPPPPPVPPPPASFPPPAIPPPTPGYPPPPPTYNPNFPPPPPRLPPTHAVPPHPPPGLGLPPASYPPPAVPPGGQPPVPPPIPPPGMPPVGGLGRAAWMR

Regarding `CN(C)[C@H]1C[C@@]23CC[C@@]4(O2)C(=CC[C@@]2(C)[C@@H](c5ccc6ccncc6c5)CC[C@H]24)C=C3[C@@H](O)[C@@H]1O` [CA, cortistatin A], the GI50 in the data set with RS4;11 was 3 nM; in data set [2], below 10 nM. Also, the “binding of CDK12 (no binding at up to)” value in data set [1] is above 2500 nM. Also, the “inhibition of CDK7 (TFIIH)” value against CDK7 (TFIIH) is listed as “did not inhibit”. Besides, the body weight result in data set [3] is reported as “no loss in body weight”. Besides, the tumor volume reduction in data set [3] is on record as 71%.
